Results on eight compounds are retold here after patent US11744859B2, “Compositions and methods for parenteral administration of therapeutic agents” (EpicentRx, Inc., priority 2017, dated 2023).

Data set [1] has as its system human colorectal HT-29 cancer cells. The following applies: 5 mg/kg, twice a week for three weeks. The source says: In this example, human colorectal HT-29 cancer cells will be xenografted to mice.
The test system of data set [2] is human breast carcinoma cells MCF7. As to the kind of experiment: orthotopically implanted MCF7 human breast carcinoma in mice, tumor volume. The format is in vivo, athymic mice (nu/nu). The following applies: either 10 mg/kg or 30 mg/kg, twice per week. On the procedure:
(§1) 6-week-old-female athymic mice (nu/nu) were implanted orthotopically with 1×10^7 cells/mL human breast carcinoma cells MCF7 or MCF/Taxol (Taxol resistance line) into their mammary fat pad. […] The treatments started when tumors were 100 mm^3. The paclitaxel blood mixes were prepared by incubating whole blood with paclitaxel and an anticoagulant (CPD) for 30 minutes.

Data set [3] deals with MCF7/Taxol (Taxol resistance line). As to the kind of experiment: orthotopically implanted MCF7/Taxol human breast carcinoma in mice, tumor volume. The settings on record: either 10 mg/kg or 30 mg/kg, twice per week. The format is in vivo, athymic mice (nu/nu). On the procedure: as §1
The subject of data set [4] is human HT-29 colorectal cancer cells. As to the kind of experiment: xenografted HT-29 colorectal tumor in mice, tumor volume. The data set is classed as in vivo. The settings on record: 12 mg/kg, one time. As for the experimental part: FIG. 5 depicts activity of control, oxaliplatin (L-OHP, 12 mg/kg), and whole blood mixed with oxaliplatin (Blood-mix-L-OHP, either 12 mg/kg or 24 mg/kg) in treating xenografted HT-29 colorectal tumor, as measured by tumor volume over time (0-40 days) after each treatment.

Data set [5] relates to sepsis model mice (CLP). The data set can be described thus: CLP sepsis model mice: survival and live bacterial count in blood. The data set is classed as in vivo, BALB/c mice. The following applies: 24 hour blood samples from septic mice; 25 mg/kg.
Procedure: Sepsis model: twenty BALB/c mice (Jackson Labs; 6-8 weeks) were made septic by CLP. Briefly, mice were anesthetized isoflurane (5% induction and 2% maintenance), and subjected to laparotomy. The cecum was exteriorized and ligated distal to the ileocecal valve without causing intestinal obstruction. The cecum was then punctured twice with either a 21 gauge needle, and stool was gently extruded. Lastly, the abdomen was closed 1 mL of saline was injected.
For data set [6] the following is noted: in vivo; cited from earlier work.
Data set [7] has as its system human lung cancer cells A549. As to the kind of experiment: xenografted A549 lung tumor in mice, tumor volume. The format is in vivo. The following applies: 50 mg/kg, twice in one week. On the procedure: FIG. 1 depicts activity of control, carboplatin (Carbo, 50 mg/kg), and whole blood mixed with carboplatin (Blood-mix-Carbo, either 50 mg/kg or 100 mg/kg) in treating xenografted A549 lung tumor, as measured by tumor volume after each treatment.
In this example, human lung cancer cells A549 were xenografted to mice.

With `COc1cccc2c1C(=O)c1c(O)c3c(c(O)c1C2=O)C[C@@](O)(C(=O)CO)C[C@@H]3O[C@H]1C[C@H](N)[C@H](O)[C@H](C)O1` [doxorubicin], the “tumor volume compared to control” value in data set [1] was “tumor volume is reduced”.
Consider `CC(=O)O[C@H]1C(=O)[C@@]2(C)[C@H]([C@H](OC(=O)c3ccccc3)[C@]3(O)C[C@H](OC(=O)[C@H](O)[C@@H](NC(=O)c4ccccc4)c4ccccc4)C(C)=C1C3(C)C)[C@]1(OC(C)=O)CO[C@@H]1C[C@@H]2O` [paclitaxel], for which the “tumor volume compared to control” value in data set [2] and in data set [3] was “tumor volume was reduced” throughout.
Take `O=C1[O][Pt]2([NH][C@@H]3CCCC[C@H]3[NH]2)[O]C1=O` [oxaliplatin]: the “tumor volume compared to control” value in data set [4] was “tumor volume was reduced”.
The compound `C[C@@H](O)[C@H]1C(=O)N2C(C(=O)O)=C(SCCN=CN)C[C@H]12` [imipenem] gave a live bacterial count in data set [5] of 7.4±0.45 log CFU/mL.
With `O=P1(NCCCl)OCCCN1CCCl` (stereo not drawn) [ifosfamide], the “elimination time of the drug” value in data set [6] was 7 to 15 h.
`O=P1(N(CCCl)CCCl)NCCCO1` (stereo not drawn) [Cyclophosphamide]: in data set [6], the “elimination time of the drug” value is 3 to 12 h.
For `CC[C@@]1(O)C(=O)OCc2c1cc1n(c2=O)Cc2cc3c(CN(C)C)c(O)ccc3nc2-1` [Topotecan], the “elimination time of the drug” value in data set [6] is 2 to 3 h.
For `N.N.O=C([O-])C1(C(=O)[O-])CCC1.[Pt+2]` [carboplatin], the “tumor volume compared to control” value in data set [7] is listed as “tumor volume was reduced”.
